US6358884B1, “Bacteriocidal and fungicidal solution containing inorganic silver complex salt and process for producing the same” (Sumitomo Metal Mining Co., Ltd., priority 1997, dated 2002)

Tests used:
Staphylococcus aureus = test: Bacteriocidal test for Staphylococcus aureus (sprayed filter paper, plate culture); format: cell-based
Experimental: Using the same aqueous solution containing silver as the chloro complex salt as in Example 1 above a bacteriocidal effect to Staphylococcus aureus was evaluated. As a comparison, a bacteriocidal test was conducted in the same manner by using a sterilizing ethanol as a bacteriocidal agent instead of the aqueous solution described above. The evaluation method is as shown below.
Each of the test specimen solutions was sprayed each about by 1 g as the bacteriocidal agent do so as to be substantially uniform by using a spray on 5A filter paper of 11 cm diameter and then each filter paper was left in a room with no air conditioning facility at a room temperature for 24 hours. Subsequently, a bacteria solution adjusted to a cell number of 7×10^4 N/ml by a preliminary test was dropped each by 1 ml by using a micro-pipette to each filter paper and further left in a room with no air conditioning facility at a room temperature for 24 hours.
Then, each filter paper was transferred to a sterilized cup, and vigorously shaken for 2 min by a shaker with addition of 100 ml of water. Subsequently, 1 ml of a test solution was sampled from each of sterilized cups, subjected to plate culture at 36° C. for 72 hours each with addition of ordinary agar culture medium, and the number of colonies formed was counted.
Further as a blank test, 1 ml of a solution diluted by 100 times from the bacterial solution described above (the number of cells about 7×10^4 N/ml) was sampled to a Shale without using the bacteriocidal agent, cultivated in the same manner as described above with addition of a usual agar medium, and the number of formed colonies was counted.

bacteria = conditions: according to "Metal", vol. 65 (1995), No. 11; cited from earlier work
fungi = conditions: according to "Metal", vol. 65 (1995), No. 11; cited from earlier work

Row | Compound | Number of cells in Shale (Staphylococcus aureus; about 1 g sprayed on filter paper, 1 ml bacteria solution 7×10^4 N/ml, 24 h, plate culture 36° C. 72 hours) | colonies in the Shale (Staphylococcus aureus; cultivation time of 48 hours) | Number of cells per filter paper (Staphylococcus aureus; per filter paper (1 ml of bacterial solution), plate culture 36° C. 72 hours) | Increase/decrease ratio for Number of cell (Staphylococcus aureus; ratio to the number of cells dropped to filter paper (7×10^4 N/ml), 72 hours cultivation) [%] | concentration showing slow releasing bacteriocidal effect (bacteria) [mg/L] | concentration showing slow releasing fungicidal effect (fungi) [mg/L]
1 | CCO [Sterilizing ethanol, ethanol] | 507 | colonies were already formed | 5.1 × 10^4 | 72.9 |  | 
2 | silver ions |  |  |  |  | ≥ 0.05 | ≥ 0.5
